This note sets out measurements from BindingDB's records for doi:10.1016/j.bioorg.2016.12.002 (China Pharmaceutical University, 2017).

The structures appear in SMILES notation.

This test deals with Hepatocyte growth factor receptor/Proto-oncogene tyrosine-protein kinase receptor Ret (Homo sapiens, UniProt P07949+P08581). Kind of test: In Vitro c-Met Enzyme Assay. The method, then:
The c-Met kinase activity as tested with enzyme-linked immunosorbent assays (ELISAs) as previously reported protocol [Qiang et al., Bioorg. Med. Chem., 24:3353-3358; Shi et al., Bioorg. Med. Chem., 22:4735-4744]. Briefly, reaction cocktail containing c-met kinase and various concentrations of measured compound or 0.1% DMSO (negative control) was incubated at 37 °C for five minutes. Then the mixture of ATP and substrate peptide was added and incubated for another 30 min. Afer that, the reaction was terminated and transferred into a pre-coated 96-well plate, and incubated for another 1 h at 37 °C. Phosphate-buffered saline (PBS) containing 0.1% Tween 20 (T-PBS) was applied to wash the plate three times. anti-phosphotyrosine (PY99) antibody was then added. Horseradish peroxidase-conjugated goat anti-mouse IgG was added after 30 min. Finally, the plate was analyzed with multi-well spectrophotometer at […].

Hepatocyte growth factor receptor/Proto-oncogene tyrosine-protein kinase receptor Ret, sequence (P08581 whole entry): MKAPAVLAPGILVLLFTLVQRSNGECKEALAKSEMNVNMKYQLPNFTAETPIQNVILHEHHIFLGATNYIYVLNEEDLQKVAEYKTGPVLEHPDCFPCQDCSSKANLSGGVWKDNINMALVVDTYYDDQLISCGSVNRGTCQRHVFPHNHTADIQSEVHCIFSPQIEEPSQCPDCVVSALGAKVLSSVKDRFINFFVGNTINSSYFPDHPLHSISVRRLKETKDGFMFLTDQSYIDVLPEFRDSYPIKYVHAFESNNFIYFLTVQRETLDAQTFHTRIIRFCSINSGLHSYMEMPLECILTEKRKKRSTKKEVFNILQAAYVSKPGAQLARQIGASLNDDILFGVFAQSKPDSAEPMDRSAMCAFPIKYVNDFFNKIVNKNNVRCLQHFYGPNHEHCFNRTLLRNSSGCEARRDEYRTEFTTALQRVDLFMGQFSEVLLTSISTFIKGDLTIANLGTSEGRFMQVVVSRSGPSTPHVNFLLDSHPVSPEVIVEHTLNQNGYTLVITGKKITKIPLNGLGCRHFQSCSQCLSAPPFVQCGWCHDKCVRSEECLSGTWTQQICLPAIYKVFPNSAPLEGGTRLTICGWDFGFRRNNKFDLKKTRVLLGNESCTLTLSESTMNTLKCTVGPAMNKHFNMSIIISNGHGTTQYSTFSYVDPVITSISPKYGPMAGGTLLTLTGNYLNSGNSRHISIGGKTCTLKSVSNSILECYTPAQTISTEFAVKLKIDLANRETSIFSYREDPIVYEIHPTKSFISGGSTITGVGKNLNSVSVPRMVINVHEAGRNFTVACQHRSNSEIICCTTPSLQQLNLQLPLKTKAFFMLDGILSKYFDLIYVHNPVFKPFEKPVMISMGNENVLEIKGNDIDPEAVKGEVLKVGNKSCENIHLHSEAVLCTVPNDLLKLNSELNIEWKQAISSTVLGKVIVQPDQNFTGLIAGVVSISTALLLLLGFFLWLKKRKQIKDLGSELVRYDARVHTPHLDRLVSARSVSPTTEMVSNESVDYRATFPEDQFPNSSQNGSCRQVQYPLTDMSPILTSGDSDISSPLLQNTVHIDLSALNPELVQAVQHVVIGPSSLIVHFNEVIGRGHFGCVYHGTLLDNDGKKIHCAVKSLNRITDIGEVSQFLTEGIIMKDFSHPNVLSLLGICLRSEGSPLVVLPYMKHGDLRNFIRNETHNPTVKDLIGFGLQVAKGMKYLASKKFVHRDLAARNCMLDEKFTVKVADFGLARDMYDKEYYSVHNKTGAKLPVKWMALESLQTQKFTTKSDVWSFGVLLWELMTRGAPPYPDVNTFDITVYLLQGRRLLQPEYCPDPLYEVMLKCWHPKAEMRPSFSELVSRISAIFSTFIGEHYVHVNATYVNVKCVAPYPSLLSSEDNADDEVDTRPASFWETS
Hepatocyte growth factor receptor/Proto-oncogene tyrosine-protein kinase receptor Ret, sequence (P07949 whole entry): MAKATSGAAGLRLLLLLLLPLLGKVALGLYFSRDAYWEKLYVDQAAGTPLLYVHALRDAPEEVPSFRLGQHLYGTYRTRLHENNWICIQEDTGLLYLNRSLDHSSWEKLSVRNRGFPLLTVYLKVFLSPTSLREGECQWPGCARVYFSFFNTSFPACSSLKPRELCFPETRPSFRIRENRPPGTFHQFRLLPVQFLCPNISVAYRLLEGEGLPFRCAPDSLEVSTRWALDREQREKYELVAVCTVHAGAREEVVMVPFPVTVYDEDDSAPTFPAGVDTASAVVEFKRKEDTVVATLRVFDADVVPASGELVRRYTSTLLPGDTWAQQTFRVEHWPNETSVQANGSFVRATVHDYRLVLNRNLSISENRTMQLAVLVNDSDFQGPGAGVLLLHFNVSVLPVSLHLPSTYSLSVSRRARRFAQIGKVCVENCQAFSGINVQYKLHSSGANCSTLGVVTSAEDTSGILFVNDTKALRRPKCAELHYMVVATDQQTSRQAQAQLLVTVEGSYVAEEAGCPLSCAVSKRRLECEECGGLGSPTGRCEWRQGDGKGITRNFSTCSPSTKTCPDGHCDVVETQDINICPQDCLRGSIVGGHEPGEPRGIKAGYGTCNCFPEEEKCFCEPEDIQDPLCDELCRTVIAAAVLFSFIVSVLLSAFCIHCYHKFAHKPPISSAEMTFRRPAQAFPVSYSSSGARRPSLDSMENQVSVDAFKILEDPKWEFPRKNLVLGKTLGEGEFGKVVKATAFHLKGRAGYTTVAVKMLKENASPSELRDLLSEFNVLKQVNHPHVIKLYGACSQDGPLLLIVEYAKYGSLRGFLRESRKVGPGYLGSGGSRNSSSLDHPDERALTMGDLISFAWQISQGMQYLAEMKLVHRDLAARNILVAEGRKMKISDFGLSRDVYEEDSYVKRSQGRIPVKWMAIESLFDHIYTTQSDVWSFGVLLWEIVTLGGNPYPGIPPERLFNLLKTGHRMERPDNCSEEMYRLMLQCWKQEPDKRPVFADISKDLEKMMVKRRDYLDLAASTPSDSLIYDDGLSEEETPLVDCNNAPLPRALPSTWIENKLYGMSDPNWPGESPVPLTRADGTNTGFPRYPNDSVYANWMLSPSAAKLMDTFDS

Molecule `Clc1ccc(-c2cn3cccc(COc4nnc5ccc(Cl)nn45)c3n2)c(Cl)c1` [6-Chloro-3-((2-(2,4-dichlorophenyl)imidazo[1,2-a]pyridin-8-yl)methoxy)-[1,2,4]triazolo[4,3-b] pyridazine (7g)] returned a 50% inhibitory concentration (IC50) of 12.2 µM. In other words, the double-digit micromolar range.
The figure for `Clc1ccc(Cl)c(-c2cn3cccc(COc4nnc5ccc(Cl)nn45)c3n2)c1` [6-chloro-3-((2-(2,5-dichlorophenyl)imidazo[1,2-a]pyridin-8-yl)methoxy)-[1,2,4]triazolo[4,3-b] pyridazine (7e)] is 12.3 µM.
In the case of `COc1ccc2c(OCc3nnc4ccc(-c5ccccc5)nn34)ccnc2c1` [7-methoxy-4-({6-phenyl-[1,2,4]triazolo[4,3-a]pyridazin-3-yl}methoxy)quinoline] it was 0.06 µM.
